Laboratory results: patent US20090252704A1, “THERAPIES FOR COGNITION AND LEARNING ENHANCEMENT” (priority 2008, published 2009)

Legend:
scopolamine treated mice = assay: step through passive avoidance (STPA) in scopolamine treated mice; assay type: in vivo, Male C57BL/6 mice
Text: Male C57BL/6 mice weighing 20-25 g (6-8 weeks of age) were maintained in a controlled environment (housed at 5 per cage; at 22-25 C.°; 12/12 light/dark cycle) and allowed to acclimate 2 weeks before initiation of the STPA task. The STPA apparatus consists of a box with two compartments light and dark; each of 20×9.5×16.5 cm^3 (Ugo Basile Rat Passive Avoidance Apparatus, customized for mice with chamber inserts). Mice were transported to the testing facility in covered cages and whilst in training or testing phases were housed at 1 or 2 per cage.
STPA Habituation phase: Mice are placed in the light compartment and latency to enter the dark compartment is recorded. The criteria of success is entrance to the dark compartment within 30 sec twice in three trails or three times in five trials; showing the normal aversion of mice to a highly lit space.
STPA Training phase: In acute drug testing, 2 hrs after habituation is complete; 30 min (t=−30) and 20 min (t=−20) prior to training, scopolamine (or saline) and test drug (or vehicle), respectively, are administered. In the drinking water protocol, at t=−30 prior to training, scopolamine (or saline) is administered. Mice are placed into the light compartment at time zero. Upon entry into the dark compartment, an automatic door closes and 2.0 sec shock (0.5 mA) is delivered through the floor grating. […] The number of trials to reach criterion is recorded for assessment of secondary biomarkers, such as analgesia.
STPA Testing phase: At 24 h and 48 h post training, animals are tested for memory retention without any drug administration. The animals are again placed in the light compartment. Latency to enter the dark side is recorded as a measure of memory consolidation, retention and retrieval.
Scopolamine (1 mg/kg; 1 mg/4 ml) is administered ip. Test compound (1 mg/kg, 1 mg/Kg) administered ip.
Dosing—Behavioral Studies: Drugs and vehicle were administered either i.p. for acute studies (1 mg/kg, or as indicated in the figures, in saline), otherwise in drinking water (20 mg/kg/day).
Drinking water dosing: Rodents drink continuously during the active dark cycle and intermittently during the resting light cycle.

[1] = system: animal models of chronic learning and cognition impairment; assay: animal models of chronic learning and cognition impairment; assay type: in vivo; conditions: chronic use

Cc1ncsc1CCO[N+](=O)[O-].Cl [GT-1061, 4-methyl-5-(2-nitroxyethyl)thiazole HCl]
reversal of cognition deficits, comparison (FIG. 4) (scopolamine treated mice; STPA, scopolamine treated mice): reversal of cognition deficits
cognition deficit reversal (FIG. 1, FIG. 2 and FIG. 3) (scopolamine treated mice; in drinking water (20 mg/kg/day), STPA, scopolamine 1 mg/kg ip): cognition deficit reversal

Cc1ncsc1CCCl [clomethiazole]
reversal of cognition deficits, comparison (FIG. 4) (scopolamine treated mice; mouse, in vivo): reversal of cognition deficits

O=[N+]([O-])O[C@H]1CO[C@H]2[C@@H]1OC[C@H]2O[N+](=O)[O-] [ISDN, isosorbide dinitrate]
effect on learning and cognition [1]: enhance learning and cognition
reversal of cognition deficits, comparison (FIG. 4) (scopolamine treated mice; STPA, scopolamine treated mice): reversal of cognition deficits
